# Test results as given in patent US20070149446A1, “Tamandarin analogs and fragments thereof and methods of making and using” (The Trustees of the University of Pennsylvania Center for …, priority 2003, published 2007).
# Starred links: 1 amine or outer side, 2 acyl side, 3 side chain; linkers in the order of their positions; H or OH if unused. Positions of bridges follow the written chain, without caps; N, C: chain ends. Non-standard residues stand in square brackets, D forms with d. Residues, ends and D or L forms follow the SMILES beside them. Hexanoyl(3S-OH,4R-NH2,5-Me) = CC(C)[C@@H](N[*:1])[C@@H](O)CC(=O)[*:2]; NMe2Nal = CN[C@@H](Cc1ccc2ccccc2c1)C(=O)O; NMeY = CN[C@@H](Cc1ccc(O)cc1)C(=O)O; dNMeL = CN[C@H](CC(C)C)C(=O)O; Hiv = CC(C)[C@H](O)C(=O)O; Lac = C[C@H](O)C(=O)O
# How the values were obtained:
# HELA-APL = assay: SRB colorimetric cell growth inhibition assay, HELA-APL; conditions: for TGI: HELA-APL cells, total growth inhibition, SRB, 48 hours exposure; for GI50 / CC50: Homo sapiens, 48 h; for CC50: read-out: LC50
# Experimental: (§1) This form of assay employs 96 well cell culture microplates of […] diameter (Faircloth, 1988; Mosmann, 1983). Most of the cell lines are obtained from American Type Culture Collection (ATCC) derived from different human cancer types.
# (§2) Cells are maintained in RPMI 1640 10% FBS, supplemented with 0.1 g/l penicillin and 0.1 g/l streptomycin sulfate and then incubated at 37° C., 5% CO2 and 98% humidity. For the experiments, cells were harvested from subconfluent cultures using trypsin and resuspended in fresh medium before plating.
# (§3) Cells are seeded in 96 well microtiter plates, at 5×10^3 cells per well in aliquots of 195 μl medium, and they are allowed to attach to the plate surface by growing in drug free medium for 18 hours. Afterward, samples are added in aliquots of 5 μl in a ranging from 10 to 10-8 μg/ml, dissolved in DMSO/EtOH/PBS (0.5:0.5:99). After 48 hours exposure, the antitumor effect are measured by the SRB methodology: cells are fixed by adding 50 μl of cold 50% (wt/vol) trichloroacetic acid (TCA) and incubated for 60 minutes at 4° C.
# (§4) Plates are washed with deionised water and dried. One hundred μl of SRB solution (0.4% wt/vol in 1% acetic acid) is added to each microtiter well and incubated for 10 minutes at room temperature. Unbound SRB is removed by washing with 1% acetic acid. Plates are air dried and bound stain is solubilized with Tris buffer. Optical densities are read on a automated spectrophotometric plate reader at a single wavelength of 490 nm.
# (§5) The values for mean+/−SD of data from triplicate wells are calculated.
# (§6) Some parameters for cellular responses can be calculated: GI=growth inhibition, TGI=total growth inhibition (cytostatic effect) and LC=cell killing (cytotoxic effect).
# LOVO = assay: SRB colorimetric cell growth inhibition assay, LOVO; conditions: for GI50 / CC50: Homo sapiens, LoVo, 48 h; for CC50: read-out: LC50; for TGI: LOVO cells, total growth inhibition, SRB, 48 hours exposure
# Experimental: as §1, §2, §3, §4, §5, §6
# DU145 = assay: SRB colorimetric cell growth inhibition assay, DU145; conditions: for TGI: DU145 cells, total growth inhibition, SRB, 48 hours exposure; for GI50 / CC50: Homo sapiens, DU-145, 48 h; for CC50: read-out: LC50
# Experimental: as §1, §2, §3, §4, §5, §6
# LN-caP = assay: SRB colorimetric cell growth inhibition assay, LN-caP; conditions: for GI50 / CC50: Homo sapiens, LNCaP, 48 h; for CC50: read-out: LC50; for TGI: LN-caP cells, total growth inhibition, SRB, 48 hours exposure
# Experimental: as §1, §2, §3, §4, §5, §6
# SK-BR3 = assay: SRB colorimetric cell growth inhibition assay, SK-BR3; conditions: for GI50 / CC50: Homo sapiens, SK-BR-3, 48 h; for CC50: read-out: LC50; for TGI: SK-BR3 cells, total growth inhibition, SRB, 48 hours exposure
# Experimental: as §1, §2, §3, §4, §5, §6
# HT29 = assay: SRB colorimetric cell growth inhibition assay, HT29; conditions: for TGI: HT29 cells, total growth inhibition, SRB, 48 hours exposure; for GI50 / CC50: Homo sapiens, HT-29, 48 h; for CC50: read-out: LC50
# Experimental: as §1, §2, §3, §4, §5, §6
# SK-MEL-28 = assay: SRB colorimetric cell growth inhibition assay, SK-MEL-28; conditions: for GI50 / CC50: Homo sapiens, SK-MEL-28, 48 h; for CC50: read-out: LC50; for TGI: SK-MEL-28 cells, total growth inhibition, SRB, 48 hours exposure
# Experimental: as §1, §2, §3, §4, §5, §6
# IGROV-ET = assay: SRB colorimetric cell growth inhibition assay, IGROV-ET; conditions: for GI50 / CC50: Homo sapiens, 48 h; for CC50: read-out: LC50; for TGI: IGROV-ET cells, total growth inhibition, SRB, 48 hours exposure
# Experimental: as §1, §2, §3, §4, §5, §6
# PANC1 = assay: SRB colorimetric cell growth inhibition assay, PANC1; conditions: for GI50 / CC50: Homo sapiens, PANC-1, 48 h; for CC50: read-out: LC50; for TGI: PANC1 cells, total growth inhibition, SRB, 48 hours exposure
# Experimental: as §1, §2, §3, §4, §5, §6
# A549 = assay: SRB colorimetric cell growth inhibition assay, A549; conditions: for TGI: A549 cells, total growth inhibition, SRB, 48 hours exposure; for GI50 / CC50: Homo sapiens, A549, 48 h; for CC50: read-out: LC50
# Experimental: as §1, §2, §3, §4, §5, §6
# IGROV = assay: SRB colorimetric cell growth inhibition assay, IGROV; conditions: for GI50 / CC50: Homo sapiens, IGROV, 48 h; for CC50: read-out: LC50; for TGI: IGROV cells, total growth inhibition, SRB, 48 hours exposure
# Experimental: as §1, §2, §3, §4, §5, §6
# K562 = assay: SRB colorimetric cell growth inhibition assay, K562; conditions: for GI50 / CC50: Homo sapiens, K562, 48 h; for CC50: read-out: LC50; for TGI: K562 cells, total growth inhibition, SRB, 48 hours exposure
# Experimental: as §1, §2, §3, §4, §5, §6
# LOVO-DOX = assay: SRB colorimetric cell growth inhibition assay, LOVO-DOX; conditions: for GI50 / CC50: Homo sapiens, 48 h; for CC50: read-out: LC50; for TGI: LOVO-DOX cells, total growth inhibition, SRB, 48 hours exposure
# Experimental: as §1, §2, §3, §4, §5, §6
# HELA = assay: SRB colorimetric cell growth inhibition assay, HELA; conditions: for TGI: HELA cells, total growth inhibition, SRB, 48 hours exposure; for GI50 / CC50: Homo sapiens, HeLa, 48 h; for CC50: read-out: LC50
# Experimental: as §1, §2, §3, §4, §5, §6
compound,measurement,setting,value
"CC(C)C[C@@H]1NC(=O)[C@H](C(C)C)OC(=O)C[C@H](O)[C@@H](C(C)C)NC(=O)[C@@H](NC(=O)[C@@H](CC(C)C)N(C)C(=O)[C@@H]2CCCN2C(=O)[C@H](C)O)[C@@H](C)OC(=O)[C@H](Cc2ccc3ccccc3c2)N(C)C(=O)[C@@H]2CCCN2C1=O [Compound 93, [2-Naphthylala^5]-Tamandarin B] (H-[Lac]P[dNMeL]T[Hexanoyl(3S-OH,4R-NH2,5-Me)][Hiv]LP[NMe2Nal]; ester 4-C)",TGI,HELA-APL,1.68E−07 Molar
same,GI50,HELA-APL,36.4 nM
same,CC50,HELA-APL,2280 nM
same,GI50,LOVO,6.84 nM
same,CC50,LOVO,2490 nM
same,TGI,LOVO,4.27E−08 Molar
same,TGI,DU145,4.39E−09 Molar
same,GI50,DU145,2.17 nM
same,CC50,DU145,8.83 nM
same,GI50,LN-caP,1.98 nM
same,CC50,LN-caP,9.7 nM
same,TGI,LN-caP,4.33E−09 Molar
same,GI50,SK-BR3,1.83 nM
same,CC50,SK-BR3,4650 nM
same,TGI,SK-BR3,1.89E−08 Molar
same,TGI,HT29,6.98E−08 Molar
same,GI50,HT29,4.6 nM
same,CC50,HT29,5580 nM
same,GI50,SK-MEL-28,4.14 nM
same,CC50,SK-MEL-28,87.9 nM
same,TGI,SK-MEL-28,1.52E−08 Molar
same,GI50,IGROV-ET,159 nM
same,CC50,IGROV-ET,2810 nM
same,TGI,IGROV-ET,6.54E−07 Molar
same,GI50,PANC1,6.24 nM
same,CC50,PANC1,9410 nM
same,TGI,PANC1,9.00E−08 Molar
same,TGI,A549,4.86E−08 Molar
same,GI50,A549,6.96 nM
same,CC50,A549,595 nM
same,GI50,IGROV,2.09 nM
same,CC50,IGROV,666 nM
same,TGI,IGROV,1.28E−08 Molar
same,GI50,K562,20 nM
same,CC50,K562,198 nM
same,TGI,K562,4.73E−08 Molar
same,GI50,LOVO-DOX,429 nM
same,CC50,LOVO-DOX,9410 nM
same,TGI,LOVO-DOX,2.33E−06 Molar
same,TGI,HELA,9.79E−09 Molar
same,GI50,HELA,2.81 nM
same,CC50,HELA,54.9 nM
"COc1ccc(C[C@H]2C(=O)OC[C@H](NC(=O)[C@@H](CC(C)C)N(C)C(=O)[C@@H]3CCCN3C(=O)[C@H](C)O)C(=O)N[C@H](C(C)C)[C@@H](O)CC(=O)O[C@@H](C(C)C)C(=O)N[C@@H](CC(C)C)C(=O)N3CCC[C@H]3C(=O)N2C)cc1 [Compound 62, [N-Ser^6]-Tamandarin B] (H-[Lac]P[dNMeL]S[Hexanoyl(3S-OH,4R-NH2,5-Me)][Hiv]LP[NMeY](Me); ester 4-C)",TGI,HELA-APL,5.41E−06 Molar
same,GI50,HELA-APL,411 nM
same,CC50,HELA-APL,≥ 9730 nM
same,GI50,LOVO,38.9 nM
same,CC50,LOVO,3660 nM
same,TGI,LOVO,2.31E−07 Molar
same,TGI,DU145,2.49E−08 Molar
same,GI50,DU145,6.79 nM
same,CC50,DU145,82.6 nM
same,GI50,LN-caP,2.71 nM
same,CC50,LN-caP,58.4 nM
same,TGI,LN-caP,7.24E−09 Molar
same,GI50,SK-BR3,3.74 nM
same,CC50,SK-BR3,≥ 9730 nM
same,TGI,SK-BR3,4.05E−08 Molar
same,TGI,HT29,2.03E−07 Molar
same,GI50,HT29,23.7 nM
same,CC50,HT29,≥ 9730 nM
same,GI50,SK-MEL-28,16.6 nM
same,CC50,SK-MEL-28,675 nM
same,TGI,SK-MEL-28,8.24E−08 Molar
same,GI50,IGROV-ET,456 nM
same,CC50,IGROV-ET,6950 nM
same,TGI,IGROV-ET,1.90E−06 Molar
same,GI50,PANC1,34.9 nM
same,CC50,PANC1,≥ 9730 nM
same,TGI,PANC1,8.82E−07 Molar
same,TGI,A549,3.51E−07 Molar
same,GI50,A549,51.5 nM
same,CC50,A549,2900 nM
same,GI50,IGROV,1990 nM
same,CC50,IGROV,9840 nM
same,TGI,IGROV,5.29E−06 Molar
same,GI50,K562,78 nM
same,CC50,K562,2390 nM
same,TGI,K562,3.03E−07 Molar
same,GI50,LOVO-DOX,2390 nM
same,CC50,LOVO-DOX,≥ 9730 nM
same,TGI,LOVO-DOX,8.40E−06 Molar
same,TGI,HELA,2.61E−08 Molar
same,GI50,HELA,3.76 nM
same,CC50,HELA,368 nM
